Laboratory results reported in patent publication US7355042B2, “Treatment of CNS disorders using CNS target modulators” (Hypnion, Inc., priority 2001, dated 2008).
“And” between values parts separate entries of the source, which are not always exact repeats. Equal entries are not always repeated. Structures can show the parent of a compound that is named as a salt. Where two headings read alike, the source gives them in different places. Marks after values point to notes of the source that are not given here.

Legend:
[1] = target: T1, human recombinant M1 muscarinic receptor expressed in CHO cells (Homo sapiens, UniProt P11229); details: read-out: Ki of reference compounds, M1 binding assay; cited from earlier work
T1 construct: expressed in transfected cells; host or cells: CHO cells
T1 sequence (P11229 1-460): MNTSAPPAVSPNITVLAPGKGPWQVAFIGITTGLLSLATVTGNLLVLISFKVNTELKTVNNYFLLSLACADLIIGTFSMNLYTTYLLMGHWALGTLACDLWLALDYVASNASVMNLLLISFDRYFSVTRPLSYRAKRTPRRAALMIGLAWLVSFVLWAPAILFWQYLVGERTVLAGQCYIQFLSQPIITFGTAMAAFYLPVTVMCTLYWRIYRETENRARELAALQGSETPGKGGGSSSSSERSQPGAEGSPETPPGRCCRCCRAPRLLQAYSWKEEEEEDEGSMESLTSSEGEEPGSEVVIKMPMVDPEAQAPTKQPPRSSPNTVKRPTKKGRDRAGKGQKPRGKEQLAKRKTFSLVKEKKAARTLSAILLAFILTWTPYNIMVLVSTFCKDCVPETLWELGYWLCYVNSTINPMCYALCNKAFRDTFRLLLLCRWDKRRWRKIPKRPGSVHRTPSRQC

[2] = test system: M3 receptor from guinea pig ileum membranes; details: read-out: Ki of reference compounds, M3 binding assay; cited from earlier work
[3] = target: T2, M2 receptor from rat cardiac membranes (Rattus norvegicus, UniProt P10980); details: read-out: Ki of reference compounds, M2 binding assay; cited from earlier work
T2 construct: the M2 receptor was from rat cardiac membranes; from tissue; host or cells: rat cardiac membranes
T2 sequence (P10980 1-466): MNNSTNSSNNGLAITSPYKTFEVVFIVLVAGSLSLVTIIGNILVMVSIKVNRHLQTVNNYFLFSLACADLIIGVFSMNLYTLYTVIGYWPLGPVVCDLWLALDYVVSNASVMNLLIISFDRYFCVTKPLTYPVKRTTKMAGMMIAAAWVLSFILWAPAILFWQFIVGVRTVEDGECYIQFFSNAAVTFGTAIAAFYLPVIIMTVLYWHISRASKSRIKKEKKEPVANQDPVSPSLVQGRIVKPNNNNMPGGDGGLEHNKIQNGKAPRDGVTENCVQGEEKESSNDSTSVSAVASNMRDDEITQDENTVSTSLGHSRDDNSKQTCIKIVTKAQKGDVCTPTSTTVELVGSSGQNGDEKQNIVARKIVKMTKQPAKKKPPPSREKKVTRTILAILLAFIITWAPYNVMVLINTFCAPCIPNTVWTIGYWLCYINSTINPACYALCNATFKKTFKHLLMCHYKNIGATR

[4] = target: T1, human recombinant M1 muscarinic receptor expressed in CHO cells; experiment: M1 binding assay (human recombinant), [3H]-scopolamine N-methyl chloride
male Wistar rats = experiment: Sleep-wakefulness, locomotor activity and body temperature monitoring (SCORE-2000); format: in vivo, rat
Histamine, H2 = Histamine, H2 (Homo sapiens, UniProt P25021); experiment: Receptor selectivity binding comparison: Histamine H2; details: 1.0E−6
[5] = target: Norepinephrine Transporter (Homo sapiens, UniProt P23975); experiment: Receptor selectivity binding comparison: Norepinephrine Transporter; details: 1.0E−6
[6] = target: cloned hERG channels expressed in HEK293 cells (Homo sapiens, UniProt Q12809); experiment: hERG block comparative study, whole cell recording; details: table title 1.0E−6
[7] = target: T3, H1 receptor from bovine cellular membranes (Bos taurus, UniProt P30546); experiment: H1 binding assay, [3H]pyrilamine displacement; details: Examples 15-17; read-out: Ki, H1 binding assay
T3 construct: the H1 receptor was from bovine cellular membranes; from tissue

[8] = target: T4, human recombinant M2 muscarinic receptor expressed in CHO cells (Homo sapiens, UniProt P08172); experiment: M2 binding assay (human recombinant)
T4 construct: expressed in transfected cells; host or cells: CHO cells
T4 sequence (P08172 1-466): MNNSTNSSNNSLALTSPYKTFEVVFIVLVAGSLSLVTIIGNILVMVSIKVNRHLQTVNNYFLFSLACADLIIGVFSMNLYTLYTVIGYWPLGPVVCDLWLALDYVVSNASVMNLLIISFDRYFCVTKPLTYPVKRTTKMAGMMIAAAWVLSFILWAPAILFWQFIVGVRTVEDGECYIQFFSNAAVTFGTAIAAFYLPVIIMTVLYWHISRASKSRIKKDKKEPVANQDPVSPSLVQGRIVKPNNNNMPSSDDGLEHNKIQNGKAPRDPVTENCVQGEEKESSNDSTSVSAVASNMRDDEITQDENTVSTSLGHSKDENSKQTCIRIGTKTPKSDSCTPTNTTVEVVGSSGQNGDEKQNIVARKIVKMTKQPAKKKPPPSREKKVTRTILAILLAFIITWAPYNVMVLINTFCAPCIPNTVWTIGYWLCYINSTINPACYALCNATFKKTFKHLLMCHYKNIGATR

[9] = target: T5, human recombinant M3 muscarinic receptor expressed in CHO cells (Homo sapiens, UniProt P20309); experiment: M3 binding assay (human recombinant); details: Examples 15-17; unit inferred; read-out: binding affinity for cholinergic (muscarinic) receptor M3
T5 construct: expressed in transfected cells; host or cells: CHO cells
T5 sequence (P20309 whole entry): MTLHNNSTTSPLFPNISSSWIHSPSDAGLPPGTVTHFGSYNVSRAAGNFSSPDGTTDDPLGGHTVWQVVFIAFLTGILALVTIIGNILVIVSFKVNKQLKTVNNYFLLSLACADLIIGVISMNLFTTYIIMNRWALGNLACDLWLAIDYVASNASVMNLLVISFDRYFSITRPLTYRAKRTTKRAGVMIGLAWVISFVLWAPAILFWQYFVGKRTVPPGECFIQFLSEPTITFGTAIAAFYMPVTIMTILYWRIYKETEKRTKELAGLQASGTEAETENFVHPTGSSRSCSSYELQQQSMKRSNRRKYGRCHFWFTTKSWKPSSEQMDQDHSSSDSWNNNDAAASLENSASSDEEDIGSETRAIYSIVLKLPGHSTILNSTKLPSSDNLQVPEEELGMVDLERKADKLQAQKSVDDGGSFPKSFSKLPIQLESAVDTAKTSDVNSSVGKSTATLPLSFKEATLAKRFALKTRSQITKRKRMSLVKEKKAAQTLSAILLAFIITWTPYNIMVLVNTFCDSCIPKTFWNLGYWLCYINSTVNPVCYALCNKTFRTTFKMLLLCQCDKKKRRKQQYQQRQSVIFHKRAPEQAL

Chain of Histamine, H2 (P25021 whole entry): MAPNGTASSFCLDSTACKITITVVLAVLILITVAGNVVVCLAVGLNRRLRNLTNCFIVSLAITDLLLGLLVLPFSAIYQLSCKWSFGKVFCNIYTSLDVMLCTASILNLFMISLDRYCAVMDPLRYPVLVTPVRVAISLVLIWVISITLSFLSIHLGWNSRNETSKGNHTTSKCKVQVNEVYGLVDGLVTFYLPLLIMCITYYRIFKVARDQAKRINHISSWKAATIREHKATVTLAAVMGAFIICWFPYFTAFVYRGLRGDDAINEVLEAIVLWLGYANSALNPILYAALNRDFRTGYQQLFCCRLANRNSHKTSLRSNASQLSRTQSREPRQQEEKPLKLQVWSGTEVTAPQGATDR
T3 sequence (P30546 whole entry): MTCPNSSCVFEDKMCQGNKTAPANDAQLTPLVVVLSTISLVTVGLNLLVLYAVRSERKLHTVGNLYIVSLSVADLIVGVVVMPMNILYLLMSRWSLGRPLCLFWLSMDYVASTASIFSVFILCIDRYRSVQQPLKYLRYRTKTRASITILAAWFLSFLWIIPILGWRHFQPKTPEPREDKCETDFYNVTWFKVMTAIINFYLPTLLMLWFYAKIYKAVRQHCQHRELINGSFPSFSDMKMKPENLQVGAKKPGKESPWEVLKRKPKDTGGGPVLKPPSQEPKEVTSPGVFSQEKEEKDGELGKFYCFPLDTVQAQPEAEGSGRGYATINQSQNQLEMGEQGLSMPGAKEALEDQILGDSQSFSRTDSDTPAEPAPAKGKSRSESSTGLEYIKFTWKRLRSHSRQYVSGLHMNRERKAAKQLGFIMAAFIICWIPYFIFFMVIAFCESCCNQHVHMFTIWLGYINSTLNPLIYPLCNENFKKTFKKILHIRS
Chain of cloned hERG channels expressed in HEK293 cells (Q12809 whole entry): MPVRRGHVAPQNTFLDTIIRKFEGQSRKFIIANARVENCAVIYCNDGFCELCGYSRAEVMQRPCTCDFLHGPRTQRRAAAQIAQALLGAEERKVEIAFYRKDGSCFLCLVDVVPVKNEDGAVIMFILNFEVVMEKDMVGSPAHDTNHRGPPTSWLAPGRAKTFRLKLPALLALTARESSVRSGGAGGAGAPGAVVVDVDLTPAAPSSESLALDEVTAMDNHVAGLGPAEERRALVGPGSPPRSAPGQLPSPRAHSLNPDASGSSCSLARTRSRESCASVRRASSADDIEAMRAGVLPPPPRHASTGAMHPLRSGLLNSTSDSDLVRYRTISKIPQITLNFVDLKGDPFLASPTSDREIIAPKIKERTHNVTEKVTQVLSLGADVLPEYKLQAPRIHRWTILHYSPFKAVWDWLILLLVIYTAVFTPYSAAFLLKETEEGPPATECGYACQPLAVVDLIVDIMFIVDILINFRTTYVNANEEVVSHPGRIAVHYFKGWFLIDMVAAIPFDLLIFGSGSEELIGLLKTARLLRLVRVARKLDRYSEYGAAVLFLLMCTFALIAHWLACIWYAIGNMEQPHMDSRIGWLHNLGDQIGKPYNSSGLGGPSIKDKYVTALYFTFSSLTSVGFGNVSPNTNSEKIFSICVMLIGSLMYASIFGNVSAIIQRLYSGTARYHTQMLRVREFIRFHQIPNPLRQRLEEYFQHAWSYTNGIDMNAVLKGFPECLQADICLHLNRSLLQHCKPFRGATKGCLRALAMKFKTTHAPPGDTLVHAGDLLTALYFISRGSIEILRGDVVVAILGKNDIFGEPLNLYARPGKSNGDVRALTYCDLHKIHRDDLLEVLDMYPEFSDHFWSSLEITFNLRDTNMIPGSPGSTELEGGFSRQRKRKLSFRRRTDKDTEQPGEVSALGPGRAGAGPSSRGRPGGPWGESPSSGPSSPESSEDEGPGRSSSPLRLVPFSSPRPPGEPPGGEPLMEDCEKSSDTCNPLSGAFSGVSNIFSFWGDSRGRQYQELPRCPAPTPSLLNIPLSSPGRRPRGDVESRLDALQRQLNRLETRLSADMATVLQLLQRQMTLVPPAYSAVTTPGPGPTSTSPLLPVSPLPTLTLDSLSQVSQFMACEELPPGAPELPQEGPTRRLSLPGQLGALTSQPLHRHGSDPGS
Chain of Norepinephrine Transporter (P23975 whole entry, species assumed): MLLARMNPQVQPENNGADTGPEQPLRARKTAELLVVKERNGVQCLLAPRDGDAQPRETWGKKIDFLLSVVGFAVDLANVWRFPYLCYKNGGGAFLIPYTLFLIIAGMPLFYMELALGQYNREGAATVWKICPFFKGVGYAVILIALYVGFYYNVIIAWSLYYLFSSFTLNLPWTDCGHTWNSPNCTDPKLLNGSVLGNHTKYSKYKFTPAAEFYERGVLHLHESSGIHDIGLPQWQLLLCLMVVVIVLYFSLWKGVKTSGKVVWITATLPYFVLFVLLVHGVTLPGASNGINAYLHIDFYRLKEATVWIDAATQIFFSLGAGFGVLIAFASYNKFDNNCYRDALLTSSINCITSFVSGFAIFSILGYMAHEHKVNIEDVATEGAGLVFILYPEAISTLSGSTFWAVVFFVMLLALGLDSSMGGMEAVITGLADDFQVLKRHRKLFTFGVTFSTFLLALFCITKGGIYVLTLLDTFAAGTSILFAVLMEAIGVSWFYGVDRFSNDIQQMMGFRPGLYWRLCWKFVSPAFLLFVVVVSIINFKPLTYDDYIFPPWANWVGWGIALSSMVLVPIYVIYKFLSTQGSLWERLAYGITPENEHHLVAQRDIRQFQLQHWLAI

C[N+]1(C)CCC(OC(=O)C(c2ccccc2)c2ccccc2)CC1 [4-DAMP methiodide]
Ki [1]: 0.27 nM
Ki [2]: 37.5 nM

CCN(CC)CC1CCCCN1CC(=O)N1c2ccccc2C(=O)Nc2cccnc21 (centres unmarked) [AF-DX 116]
Ki [3]: 63 nM

O=C(O)CCN1CCC(=C2c3ccccc3COc3ccccc32)CC1 [Compound 8a]
Percent Inhibition, Muscarinic, M1 (Human Recombinant) ([4]; 1.0E−6): 3.3%
Average Bout-Length (male Wistar rats; 30 mg/kg PO at CT-18): 12.2 min
Maximum Bout Length (male Wistar rats; 30 mg/kg PO at CT-18): 28.9 min
NREM Accum. (male Wistar rats; 30 mg/kg PO at CT-18): 65.8 min
NREM Peak (%/hr) (male Wistar rats; 30 mg/kg PO at CT-18): 75.5 %/hr
Onset (male Wistar rats; 30 mg/kg PO at CT-18): 65 min
Percent Inhibition, Histamine, H2 (Histamine, H2): 33.4%
Percent Inhibition, Norepinephrine Transporter [5]: −3.9%
Percent Inhibition, HERG [6]: 4%

CC(C)(CN1CCC(N2c3ccccc3Sc3ccccc32)CC1)C(=O)O.Cl [Compound UU1]
Ki [7]: < 500 nM and 13.6 nM
Ki ([4]; Examples 15-17, unit inferred, read-out: binding affinity for cholinergic (muscarinic) receptor M1): > 10 µM
Ki ([8]; Examples 15-17, unit inferred, read-out: binding affinity for cholinergic (muscarinic) receptor M2): > 10 µM
Ki [9]: > 10 µM
sleep continuity, as assessed by sleep bout length (male Wistar rats; 10 mg/kg PO at CT-18, male Wistar rats): increased sleep continuity
total sleep time post-treatment (male Wistar rats; 10 mg/kg PO at CT-18, versus methylcellulose vehicle): significantly increased total sleep time
net longest sleep bout post treatment (male Wistar rats; adjusted using a baseline value at least 24 hours prior, functional criteria list): greater than or equal to 3 minutes
average sleep bout (male Wistar rats; at absolute peak, functional criteria list): greater than 5 minutes
nonREM peak time value (male Wistar rats; by the third hour after administration, functional criteria list): greater than 55 % nonREM sleep per hour
cumulative total increase in nonREM sleep (male Wistar rats; doses that produce maximum sleep consolidation, functional criteria list): not less than 20 minutes
REM sleep inhibition (male Wistar rats; functional criteria list): does not appreciably inhibit REM sleep
locomotor activity inhibition relative to the normal effects of sleep (male Wistar rats; functional criteria list): does not disproportionately inhibit locomotor activity
longest sleep bout (male Wistar rats; functional criteria list): greater than 13 minutes
rebound insomnia (male Wistar rats; functional criteria list): does not produce appreciable amounts of rebound insomnia
body temperature adverse effects (male Wistar rats; rats): no evidence of causing disproportional locomotor inhibition or body temperature adverse effects
disproportional locomotor inhibition (male Wistar rats; rats): no evidence of causing disproportional locomotor inhibition or body temperature adverse effects

CN(C)CCC=C1c2ccccc2COc2ccccc21 [Doxepin, doxepin HCl, reference compound]
Percent Inhibition, Muscarinic, M2 (Human Recombinant) ([8]; 1.0E−6): 74.0%
Percent Inhibition, Histamine, H2 (Histamine, H2): 74.7%
Percent Inhibition, HERG [6]: 23%**

O[Si](CCCN1CCCCC1)(c1ccccc1)C1CCCCC1 (centres unmarked) [HHSID]
Ki [2]: 281 nM
